Assay results taken from ChEMBL document CHEMBL1134966 (Bioorg Med Chem Lett, 2002).

Experiments:
Assay in all cases: cells
Assay type in all cases: functional, cell-based
Conditions in all cases: Homo sapiens
MCF7 = system: MCF7
Description: In vitro cytotoxic effect on MCF-7 cancer cell line

CCRF-CEM = system: CCRF-CEM
Description: In vitro cytotoxic effect on CEM cancer cell line

K562 = system: K562
Description: In vitro cytotoxic effect on K562 cancer cell line

HOS = system: HOS
Description: In vitro cytotoxic effect on HOS cancer cell line

G-361 = system: G-361
Description: In vitro cytotoxic effect on G361 cancer cell line

Row | IC50 (MCF7) [µM] | IC50 (CCRF-CEM) [µM] | IC50 (K562) [µM] | IC50 (HOS) [µM] | IC50 (G-361) [µM] | Structure (SMILES)
1 | 14.8 | 6.7 | 16.1 |  |  | CC(C)C(CO)Nc1nc(NCc2cccc(O)c2)c2ncn(C(C)C)c2n1 (stereo unspecified)
2 | 9.3 | 5.3 | 14.8 | 12 | 11.1 | CC(C)C(CO)Nc1nc(NCc2ccc(O)cc2)c2ncn(C(C)C)c2n1 (stereo unspecified)
3 | 5.3 | 3 | 11.1 | 6.3 | 6.3 | CC[C@H](CO)Nc1nc(NCc2ccccc2O)c2ncn(C(C)C)c2n1 [OLOMOUCINE II]
4 |  | 62 | > 167 | 149 | 160 | Cn1cnc2c(NCc3ccccc3)nc(NCCO)nc21 [OLOMOUCINE]
5 | 7.8 | 11 | 24 | 13 | 11.1 | CCC(CO)Nc1nc(NCc2ccc(O)cc2)c2ncn(C(C)C)c2n1 (stereo unspecified)
6 | 13.7 | 9.9 | 26 | 11 | 19.4 | CCC(CO)Nc1nc(NCc2cccc(O)c2)c2ncn(C(C)C)c2n1 (stereo unspecified)
7 | 12.7 | 18.2 | 57 |  | 23 | CC(C)n1cnc2c(NCc3ccc(O)cc3)nc(NCCCO)nc21
8 | 5.7 | 4.4 | 10.9 | 8.3 | 7.8 | CC(C)C(CO)Nc1nc(NCc2ccccc2O)c2ncn(C(C)C)c2n1 (stereo unspecified)
9 | 14.7 | 17.6 | 56 | 26 | 26 | CC(C)n1cnc2c(NCc3cccc(O)c3)nc(NCCCO)nc21
10 | 12.4 | 10.7 | 24 | 17.2 | 13.3 | CC(C)n1cnc2c(NCc3ccccc3O)nc(NCCCO)nc21

Row | Structure (SMILES) | IC50 (MCF7) [µM] | IC50 (CCRF-CEM) [µM] | IC50 (K562) [µM] | IC50 (HOS) [µM] | IC50 (G-361) [µM]
11 | CC(C)[C@H](CO)Nc1nc(Nc2cccc(Cl)c2)c2ncn(C(C)C)c2n1 [PURVALANOLA] | 10.7 | 7.4 | 9 | 22 | 24
12 | CC(C)n1cnc2c(NCc3ccccc3)nc(NCCCO)nc21 [BOHEMINE] | 28 | 27 | 113 | 58 | 45
